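48-hour exposure; five concentrations; linearly interpolated endpoints. The concentration for 50% growth inhibition is given as GI50. At the TGI there is no net growth.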
Experiments:
Test in all cases: NCI anticancer screen, dose series, 48 h
[1] = test system: HS 578T breast
[2] = test system: SNB-75 CNS
[3] = test system: HL-60(TB) leukemia
[4] = test system: SK-OV-3 ovarian
[5] = test system: SF-539 CNS
[6] = test system: TK-10 renal
[7] = test system: K-562 leukemia
[8] = test system: NCI-H23 lung
[9] = test system: MALME-3M melanoma
[10] = test system: HT29 colon

O=P(O)(O)c1ccccc1Oc1ccccc1
TGI [1]: > 100 µM | TGI [2]: > 100 µM | TGI [3]: > 100 µM | TGI [4]: > 100 µM | TGI [5]: > 100 µM | TGI [6]: > 100 µM | TGI [7]: > 100 µM | TGI [8]: > 100 µM

NCCCCNCCCNC(=O)c1nc(-c2nc(CCN)sc2Cl)sc1Cl
TGI [9]: > 100 µM | TGI [2]: > 100 µM | TGI [3]: > 100 µM | TGI [4]: > 100 µM | TGI [5]: > 100 µM | TGI [6]: > 100 µM | TGI [7]: > 100 µM | TGI [8]: > 100 µM | TGI [10]: > 100 µM

COC(=O)[C@@H]1CCCCC[C@H]2C(CO)=C(C)C(=O)C12 (stereo partly specified)
TGI [9]: > 100 µM | TGI [2]: > 100 µM | TGI [3]: > 100 µM | TGI [4]: > 100 µM | TGI [5]: > 100 µM | TGI [6]: > 100 µM | TGI [7]: > 100 µM | TGI [8]: > 100 µM | TGI [10]: > 100 µM

Cc1cc(S(=O)(=O)Nc2n[nH]c(-c3ccccn3)n2)c(S)cc1Cl
TGI [9]: 60.3 µM | TGI [1]: 86.6 µM | TGI [2]: 85.8 µM | TGI [3]: 41.2 µM | TGI [4]: 37.3 µM | TGI [5]: 54.3 µM | TGI [6]: 23.9 µM | TGI [10]: 41.7 µM

C=C1N(C=O)C(C)(C)N(O)C1(C)C
TGI [9]: > 100 µM | TGI [1]: > 100 µM | TGI [2]: > 100 µM | TGI [4]: > 100 µM | TGI [5]: > 100 µM | TGI [6]: > 100 µM | TGI [8]: > 100 µM | TGI [10]: > 100 µM

N#C/C(C(=O)Nc1ccc(Cl)cc1)=C(/N)N1CCCC1
TGI [2]: > 100 µM | TGI [3]: > 100 µM | TGI [4]: > 100 µM | TGI [5]: > 100 µM | TGI [7]: > 100 µM | TGI [8]: > 100 µM

CC[C@H](Nc1nc(C)nc(N)c1C#N)c1nc2cccc(NCc3ccc(C(=O)NO)cc3)c2c(=O)n1-c1ccccc1
GI50 [9]: 1.48 µM | TGI [9]: 4.05 µM | GI50 [1]: 2.45 µM | TGI [1]: 8.36 µM | GI50 [2]: 1.73 µM | TGI [2]: 7.27 µM | GI50 [4]: 1.65 µM | TGI [4]: 3.13 µM | GI50 [5]: 1.59 µM | TGI [5]: 3.02 µM | GI50 [6]: 2.43 µM | TGI [6]: 7.86 µM | GI50 [7]: 2.2 µM | TGI [7]: > 100 µM | GI50 [8]: 1.83 µM | TGI [8]: 4.05 µM | GI50 [10]: 1.76 µM | TGI [10]: 4.45 µM

O=C(CCc1cc(O)cc(O)c1)NCCCNC(=O)CCc1cc(O)cc(O)c1
TGI [9]: > 100 µM | TGI [4]: > 100 µM | TGI [5]: > 100 µM | TGI [6]: > 100 µM | TGI [7]: > 100 µM | TGI [8]: > 100 µM | TGI [10]: > 100 µM

CCOC(=O)c1s/c(=N\Nc2nc3ccccc3cc2C2OCCO2)n(Cc2ccccc2)c1C
TGI [9]: > 100 µM | TGI [2]: > 100 µM | TGI [3]: > 100 µM | TGI [4]: > 100 µM | TGI [5]: > 100 µM | TGI [6]: > 100 µM | TGI [7]: > 100 µM | TGI [8]: > 100 µM | TGI [10]: > 100 µM

COC(=O)C1(CCCCCBr)CCCCCCCCCCC1=O (stereo unspecified)
TGI [9]: 47.6 µM | TGI [1]: > 100 µM | TGI [3]: 49.9 µM | TGI [4]: > 100 µM | TGI [5]: > 100 µM | TGI [6]: > 100 µM | TGI [7]: > 100 µM | TGI [8]: > 100 µM | TGI [10]: > 100 µM

COc1cc(C(=O)Oc2ccc3c(c2)OCO3)cc(OC)c1OC
TGI [9]: > 100 µM | TGI [1]: > 100 µM | TGI [2]: > 100 µM | TGI [3]: > 100 µM | TGI [4]: > 100 µM | TGI [5]: > 100 µM | TGI [6]: > 100 µM | TGI [8]: > 100 µM | TGI [10]: > 100 µM

C=C1C(OC2O[C@@H]3O[C@@]4(C)CC[C@H]5[C@H](C)CC[C@@H](C2=C)[C@@]35O4)O[C@@H]2O[C@@]3(C)CC[C@H]4[C@H](C)CC[C@@H]1[C@@]24O3 (stereo partly specified)
TGI [9]: > 50 µM | TGI [1]: > 50 µM | TGI [3]: > 50 µM | TGI [4]: > 50 µM | TGI [5]: > 50 µM | TGI [6]: > 50 µM | TGI [7]: > 50 µM | TGI [8]: > 50 µM | TGI [10]: > 50 µM

C=C1OC(c2ccccc2NC)=NC12CCCCC2
TGI [9]: > 100 µM | TGI [1]: > 100 µM | TGI [3]: > 100 µM | TGI [4]: > 100 µM | TGI [5]: > 100 µM | TGI [6]: > 100 µM | TGI [7]: > 100 µM | TGI [8]: > 100 µM | TGI [10]: > 100 µM

CC1(C)OCC2OC3([C@@H]4OC(C)(C)O[C@H]4CO)OC(C)(C)OC3C2O1 (stereo partly specified)
TGI [2]: > 100 µM | TGI [5]: > 100 µM | TGI [7]: > 100 µM | TGI [8]: > 100 µM

Cn1c(=O)c2c(nc3n(Cc4ccccc4)c(=O)c(NCCCBr)cn23)n(C)c1=O
TGI [1]: > 100 µM | TGI [2]: 97.7 µM | TGI [3]: > 100 µM | TGI [4]: 97.3 µM | TGI [6]: > 100 µM | TGI [7]: > 100 µM | TGI [8]: > 100 µM | TGI [10]: > 100 µM

CCC1=C(C(C)=O)[C@@H]2CCCCC[C@@H](C(=O)OC)C2C1=O (stereo partly specified)
TGI [9]: > 100 µM | TGI [2]: > 100 µM | TGI [3]: > 100 µM | TGI [4]: > 100 µM | TGI [5]: > 100 µM | TGI [6]: > 100 µM | TGI [7]: > 100 µM | TGI [8]: > 100 µM | TGI [10]: > 100 µM

Cc1ccc2c(c1)-c1c(C#N)c(N)nc(-c3ccc(Cl)cc3)c1CCS2(=O)=O
TGI [9]: > 100 µM | TGI [1]: 64.6 µM | TGI [2]: 14.3 µM | TGI [4]: > 100 µM | TGI [5]: 37.1 µM | TGI [6]: > 100 µM | TGI [7]: 7.02 µM | TGI [8]: > 100 µM | TGI [10]: > 100 µM

COC(=O)C1C(C(=O)OC)C2(OC(c3ccc(Cl)cc3)=CC2=O)C12OC(c1ccc(Cl)cc1)=CC2=O (stereo unspecified)
TGI [9]: 31.6 µM | TGI [1]: > 100 µM | TGI [3]: 8.29 µM | TGI [4]: > 100 µM | TGI [5]: 39.2 µM | TGI [6]: 48.5 µM | TGI [7]: 53.5 µM | TGI [8]: 52.2 µM | TGI [10]: 45.2 µM

CCc1c(CNc2ccc(C(=O)NC(CC(=O)O)C(=O)O)cc2)ccc2nc(N)nc(N)c12 (stereo unspecified)
GI50 [9]: 0.179 µM | TGI [9]: > 1000 µM | TGI [1]: > 1000 µM | GI50 [2]: 115 µM | TGI [2]: > 1000 µM | GI50 [4]: > 1000 µM | TGI [4]: > 1000 µM | GI50 [5]: 0.285 µM | TGI [5]: > 1000 µM | GI50 [6]: > 1000 µM | TGI [6]: > 1000 µM | TGI [7]: > 1000 µM | TGI [8]: > 1000 µM | TGI [10]: > 1000 µM

CSC(SC)=C(C(=O)O)P(=O)(O)O
TGI [9]: > 100 µM | TGI [1]: > 100 µM | TGI [3]: > 100 µM | TGI [4]: > 100 µM | TGI [5]: > 100 µM | TGI [6]: > 100 µM | TGI [8]: > 100 µM | TGI [10]: > 100 µM

CC(C)N1CC2CC(CN(C(=O)c3ccccc3)C2)C1
TGI [9]: > 100 µM | TGI [2]: > 100 µM | TGI [3]: > 100 µM | TGI [4]: > 100 µM | TGI [5]: > 100 µM | TGI [6]: > 100 µM | TGI [7]: > 100 µM | TGI [8]: > 100 µM | TGI [10]: > 100 µM

Cc1c(CN2CCN(C)CC2)c(CN2CCN(C)CC2)c(C)n1-c1ccc(Cl)cc1
TGI [9]: 37.5 µM | TGI [1]: 70.6 µM | TGI [2]: 88.4 µM | TGI [4]: > 100 µM | TGI [6]: 47.8 µM | TGI [7]: > 100 µM | TGI [8]: > 100 µM | TGI [10]: 42.7 µM
